Several values for one entry are separate records, joined by “and”; a condition that tells them apart may be missing. Equal entries are not always repeated. Positions of bridges follow the written chain, without caps; N, C: chain ends. Non-standard residues stand in square brackets, D forms with d. Residues, ends and D or L forms follow the SMILES beside them. *: point of attachment. X1 = CC[C@H](C)CCCCC(=O)*; Dab = NCC[C@H](N)C(=O)O

A short description of data set [1]: Circular dichroism secondary structure in G(−)IM ULVs. The class given is physicochemical. The following applies: 10 μM peptide, 15 mM PBS pH 7, 37 °C. As for the experimental part: Unilamellar vesicles (ULVs) of ∼600 Å diameter were prepared using an Avanti extruder: 200 μL of 20 mg/ml G(−)IM lipid in 15 mM PBS was extruded 21 times through Nucleopore filters of size 500 Å using 0.2 mL Hamilton syringes in the Avanti extruder. The final concentration of G(−)IM lipid in the ULVs was determined gravimetrically to be 15 mg/ml. Concentrated ULVs were added to 3 mL of 10 μM peptide in 15 mM PBS at pH 7 to create lipid/peptide molar ratios between 0:1 and 70:1. The samples remained at room temperature for ∼16 h before the CD measurement. Data were collected in 3 mL quartz cuvettes using a Jasco 1500 CD spectrophotometer at 37 °C in the Center for Nucleic Acids Science and Technology at Carnegie Mellon University. The samples were scanned from 200 to 240 nm 20 times, and the ellipticity (ϵ) results were averaged. Temperature was controlled at 37 °C via a Peltier element and water circulation through the sample compartment. Nitrogen gas was used at a flow rate between 20 and 25 ft^3/h (CFH). The parameters for scanning were: speed 100 nm/min, step size 1.0 nm, response time 1 second, bandwidth 1 nm, and sensitivity of 20 mdeg. OriginPro 2019 (OriginLab, Northampton, MA) was used to carry out a linear least-squares fit of the smoothed ellipticity traces to four secondary structural motifs representing α-helix, β-sheet, β-turn, and random coil.[20] This analysis gives a percentage match of each of the secondary structural motifs to the total sample ellipticity. Data were finally converted to mean residue ellipticity, taking into account the peptide concentration (10 μMolar) and number of amino acids (N), using the equation: MRE = (10^4/N)ϵ deg cm^2/dmol.
(Circular dichroism is widely used to follow secondary structure.)

Data set [2] has as its system Klebsiella pneumoniae, 24 clinical isolates and 1 lab strain. The class given is cell-based. Conditions: for antibacterial efficacy: tested G(−) bacteria (K. pneumoniae). As for the experimental part:
Minimum inhibitory concentration (MIC, defined as the minimum AMP concentration to prevent bacterial growth) and biofilm data were obtained by UV–vis spectroscopy using a BioTek Epoch 2 microplate reader.
K. pneumoniae substrains were grown overnight using 50 mL plastic conical tubes on a shaker platform at 37 °C. The following day, serial dilutions of the four SPLUNC1 peptides and LL-37 were tested against these 25 substrains of K. pneumoniae using a 96-well plate. […] Following the addition of the peptides at the tested concentrations from serial dilutions to the K. pneumoniae substrains, the plates were incubated at 37 °C for 16 h. Then, visible spectroscopy at λ = 570 nm was performed to determine the bacterial absorption in each well. Those wells with an optical density reading above a threshold value were deemed resistant to the peptide, while those that were below the threshold value were deemed sensitive to the peptide. The threshold value was determined using Gen5 software with the Di lab Growth Inhibition Assay protocol.
Average MICs and standard deviations were calculated by first averaging the absorbances as a function of AMP concentration in all of the bacterial strains from four total data sets. Then, the average MICs were determined from the averaged absorbances. The standard deviations of the MICs were calculated from each of the absorbances that were used to calculate the average. Then, the standard deviations were averaged across substrains for the graph. These procedures were used to obtain an average MIC with standard deviation across all 25 substrains for one peptide, in order to compare peptide efficacy. Typically, many more substrains are used to obtain an average MIC, so this average MIC may change if thousands of substrains are compared.

Data set [3] is described as follows: Circular dichroism secondary structure in Euk33 ULVs. The class given is physicochemical. The following applies: 10 μM peptide, 15 mM PBS pH 7, 37 °C.
Where [4] appears, read: G(−)IM/peptide molar ratio 10:1.
[5] abbreviates: G(−)IM/peptide molar ratio 15:1.
Where [6] appears, read: G(−)IM/peptide molar ratio 20:1.
Setting [7] is: G(−)IM/peptide molar ratio 30:1.
Where [8] appears, read: G(−)IM/peptide molar ratio 50:1.
Setting [9] is: G(−)IM/peptide molar ratio 70:1.

Turning to “GVKKKWKKKLGLTLWLKISGVV [A4-198, version scrambled to α-helical content, with a similar hydrophobicity as A4-153]”, the Random stood at 35.9% in data set [1] (G(−)IM/peptide molar ratio 0:1); 32.7% in data set [1] (G(−)IM/peptide molar ratio 1:1); 41.0% in data set [1] (G(−)IM/peptide molar ratio 5:1); 42.11% in data set [1] (setting [4]); 12.1% in data set [1] (setting [5]); 30.7% in data set [1] (setting [6]). Also, the Random in data set [1] (setting [7]) worked out at 34.9%; in data set [1] (setting [8]) it was 37.6%; in data set [1] (setting [9]), 37.1%; in data set [3] (Euk33/peptide molar ratio 0:1) it was 35.9%; in data set [3] (Euk33/peptide molar ratio 5:1), 34.7%; in data set [3] (Euk33/peptide molar ratio 10:1) it was 37.0%. Further, the Random in data set [3] (Euk33/peptide molar ratio 30:1) stood at 38.7%; in data set [3] (Euk33/peptide molar ratio 70:1) it was 41.8%. For the same compound, the α-helix in data set [1] (G(−)IM/peptide molar ratio 0:1) came out at 2.9%; in data set [1] (G(−)IM/peptide molar ratio 1:1) it was 2.6%; in data set [1] (G(−)IM/peptide molar ratio 5:1) it was 22.0%; in data set [1] (setting [4]), 15.5%; in data set [1] (setting [5]), 9.1%; in data set [1] (setting [6]), 4.6%. The α-helix in data set [1] (setting [7]) worked out at 0.2%; in data set [1] (setting [8]), 0.2%; in data set [1] (setting [9]), 2.0%; in data set [3] (Euk33/peptide molar ratio 0:1), 2.9%; in data set [3] (Euk33/peptide molar ratio 5:1), 5.7%; in data set [3] (Euk33/peptide molar ratio 10:1), 5.9%. Besides, the α-helix was 6.2% and 6% in data set [3] (Euk33/peptide molar ratio 30:1); 10.3% in data set [3] (Euk33/peptide molar ratio 70:1). The β-sheet amounted to 56.7% in data set [1] (G(−)IM/peptide molar ratio 0:1); 55.9% in data set [1] (G(−)IM/peptide molar ratio 1:1); 24.4% in data set [1] (G(−)IM/peptide molar ratio 5:1); 32.0% in data set [1] (setting [4]); 48.1% in data set [1] (setting [5]); 44.5% in data set [1] (setting [6]). Moreover, the β-sheet in data set [1] (setting [7]) turned out to be 44.5%; in data set [1] (setting [8]), 46.4%; in data set [1] (setting [9]), 46.2%; in data set [3] (Euk33/peptide molar ratio 0:1), 56.7%; in data set [3] (Euk33/peptide molar ratio 5:1) it was 53.6%; in data set [3] (Euk33/peptide molar ratio 10:1), 51.9%. Also, the β-sheet in data set [3] (Euk33/peptide molar ratio 30:1) is 49.4%; in data set [3] (Euk33/peptide molar ratio 70:1), 47.9%. The β-turn in data set [1] (G(−)IM/peptide molar ratio 0:1) is listed as 4.5%; in data set [1] (G(−)IM/peptide molar ratio 1:1), 8.8%; in data set [1] (G(−)IM/peptide molar ratio 5:1), 12.6%; in data set [1] (setting [4]), 10.4%; in data set [1] (setting [5]) it was 30.7%; in data set [1] (setting [6]), 20.2%. Moreover, the β-turn in data set [1] (setting [7]) stood at 20.4%; in data set [1] (setting [8]), 15.8%; in data set [1] (setting [9]) it was 14.7%; in data set [3] (Euk33/peptide molar ratio 0:1), 4.5%; in data set [3] (Euk33/peptide molar ratio 5:1) it was 6.0%; in data set [3] (Euk33/peptide molar ratio 10:1), 5.2%. Besides, the β-turn in data set [3] (Euk33/peptide molar ratio 30:1) worked out at 5.7%; in data set [3] (Euk33/peptide molar ratio 70:1), 0%. The “average MIC value” in data set [2] (average over 25 K. pneumoniae substrains, 37 °C, 16 h, OD 570 nm, growth at 32 μM counted as 64 μM) is “highest MIC value”. Further, the “antibacterial efficacy” value in data set [2] was “ineffective”.
For the compound `CC[C@H](C)CCCCC(=O)N[C@@H](CCN)C(=O)N[C@H](C(=O)N[C@@H](CCN)C(=O)N[C@H]1CCNC(=O)[C@H]([C@@H](C)O)NC(=O)[C@H](CCN)NC(=O)[C@H](CCN)NC(=O)[C@H](CC(C)C)NC(=O)[C@@H](CC(C)C)NC(=O)[C@H](CCN)NC1=O)[C@@H](C)O` [colistin, reference compound] (X1-[Dab]T[Dab][Dab][Dab][dL]L[Dab][Dab]T; lactam 4-C (inferred); N-terminus assumed), in data set [2] (13 colistin-susceptible K. pneumoniae substrains), the “average MIC, colistin-susceptible substrains only” value turned out to be 0.88 µM. Further, the “MIC in the colistin-sensitive substrains” value in data set [2] (colistin-sensitive K. pneumoniae substrains) was less than 2 µM.
Consider “LL-37: the human cathelicidin, natural AMP control [reference compound]”, for which the “antibacterial efficacy” value in data set [2] is listed as “ineffective”.

Source of the values: paper PMC10265666, “Lung SPLUNC1 Peptide Derivatives in the Lipid Membrane Headgroup Kill Gram-Negative Planktonic and Biofilm Bacteria” (Biomacromolecules, 2023).
